Measured values: patent US20220409620A1, “REDUCING IMMUNOGENICITY TO PEGLOTICASE” (Horizon Pharma Rheumatology LLC, priority 2016, published 2022)

Tested on: adult patients with uncontrolled gout
Assay: Serum uric acid (sUA) levels and sUA responder rate, open-label study of pegloticase with MTX (MIRROR OL)
Type: in vivo, human
Conditions: for Serum Uric Acid Change from Methotrexate Baseline, Mean (SD) / Serum Uric Acid Change from Methotrexate Baseline, Median / Serum Uric Acid, Observed, Mean (SD) / Serum Uric Acid, Observed, Median / sUA <6 mg/dL, n (%): mITT
Method: The primary objective is to estimate the response rate during Month 6 (Weeks 20, 22, and 24), as measured by the sustained normalization of serum uric acid (SUA) to <6 mg/dL for at least 80% of the time during Month 6 in subjects receiving KXX with MTX.
The primary efficacy outcome endpoint is the sustained normalization of SUA to <6 mg/dL for at least 80% of the time during month 6 (weeks 20, 22, and 24) in subjects receiving KXX with MTX. […] Participants who achieve this endpoint were classified as “responders.” Serum uric acid (SUA) responders may also be defined as participants achieving and maintaining SUA <6 mg/dL for at least 80% of the time during Month 6 (Weeks 20, 22, and 24).
Blood samples may be collected prior to each pegloticase infusion for measurement of SUA levels using the Beckman Coulter AU System Uric Acid procedure. Participants were declared “non-responders” if there were SUA measures >6 mg/dL at 2 consecutive study visits beginning with the week 2 visit. […] This assumption and subsequent discontinuation of pegloticase was consistent with the protocol of large phase III randomized controlled trials and the product label. A formal stopping rule was 2 occasions of SUA levels of greater than 6 mg/dL.
Clinical Chemistry—Blood samples were collected prior to each pegloticase infusion for measurement of SUA levels (primary efficacy parameter) using the Beckman Coulter AU System Uric Acid procedure. In this procedure uric acid is converted to hydrogen peroxide. Hydrogen peroxide reacts with reagent to produce a chromophore which is read bichromatically at 660/800 nm. The amount of dye formed is proportional to the uric acid concentration in the sample.
Serum samples for measurement of SUA levels were collected at the Screening Visit, the Week −4 Visit (prior to the first dose of MTX), and the Week −2 Visit during the MTX Run-in Period; within 48 hours prior to each pegloticase infusion and after the end of each pegloticase infusion prior to discharge from the site during the Pegloticase+IMM Period; at the non-infusion Week 52/End of Study/Early Termination Visits and at the Post Treatment 3 and 6 Month Follow-up Visits. Additional serum samples for SUA levels were collected at optional non-infusion (Frequent Sampling) Visits at Weeks 1 and 7. […] Subjects with SUA level >6 mg/dL at 2 consecutive visits beginning at Week 2 visit discontinued treatment, completed the End of Pegloticase Infusion Visit procedures within 2 weeks and continued the subject visits according to the protocol (without treatment).
Efficacy analyses were performed using the modified intention-to-treat (mITT) population, defined as all enrolled subjects who received ≥1 dose of pegloticase. The proportion of Month 6 responders was summarized, along with a 95% confidence interval for the proportion. The proportion of Month 3 and overall (Months 3 and 6 combined) responders was analyzed similarly.
A subject was declared a non-responder if the subject had SUA level >6 mg/dL at 2 consecutive study visits beginning with the Week 2 Visit. In addition, a subject who withdraws from study treatment for any reason after the first dose of pegloticase in the KXX+MTX Period and prior to Month 6 (for the primary endpoint) or Month 3 (for the secondary endpoint) was considered a non-responder if SUA values were not collected at the planned time points.
Patients were administered oral MTX (15 mg/week) and folate (1 mg/day) 4 weeks prior to the first pegloticase infusion (Day 1) and throughout the pegloticase treatment period. Blood was drawn prior to each infusion to measure sUA level, monitor clinical parameters, and examine for ADA development. All patients followed typical IR prophylaxis protocols (fexofenadine one day before and the morning of each infusion and acetaminophen and IV corticosteroid the morning of each infusion).

[1] = Day 1 - Pre-Infusion (after MTX Run-in)

CN(Cc1cnc2nc(N)nc(N)c2n1)c1ccc(C(=O)N[C@@H](CCC(=O)O)C(=O)O)cc1 [MTX, methotrexate]
mean sUA (Day 1, after 4-week MTX run-in, before first pegloticase infusion, 14 patients): 9.2 ± 2.5 mg/dL | Serum Uric Acid Change from Methotrexate Baseline, Mean (SD) [1]: 0.25 (1.283) mg/dL | Serum Uric Acid Change from Methotrexate Baseline, Median [1]: -0.25 mg/dL | Serum Uric Acid, Observed, Mean (SD) [1]: 9.16 (2.486) mg/dL | Serum Uric Acid, Observed, Median [1]: 9.00 mg/dL | sUA <6 mg/dL, n (%) [1]: 1 (7.1%) | Serum Uric Acid Change from Methotrexate Baseline, Mean (SD) (Week - 2 (MTX Run-in)): 0.54 (0.839) mg/dL | Serum Uric Acid Change from Methotrexate Baseline, Median (Week - 2 (MTX Run-in)): 0.50 mg/dL | Serum Uric Acid, Observed, Mean (SD) (Week - 2 (MTX Run-in)): 9.45 (2.211) mg/dL | Serum Uric Acid, Observed, Median (Week - 2 (MTX Run-in)): 9.30 mg/dL | sUA <6 mg/dL, n (%) (Week - 2 (MTX Run-in)): 1 (7.1%)
